# According to the supplement of paper PMC10307832:
# Legend:
# Assay in all cases: relative viability (nuclei count vs DMSO), 5 days (fraction); higher = more cells survive
# [1] = compound: CC(C)C[C@H](NC(=O)[C@H](Cc1ccccc1)NC(=O)c1cnccn1)B(O)O [Bortezomib] + O=C(CCCCCCC(=O)Nc1ccccc1)NO [Vorinostat] (partner 1 µM)
# Outline: (§1)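 The day after seeding in 1536-well plates, lung cancer cell lines were treated by pin tool with a single drug, or with a fixed anchor-drug dose together with five library-drug doses (not always all listed) in √10 steps. After 5 days, a combined fix-and-stain solution (final 0.05% Triton X-100, 1% formaldehyde, 1 ug/ml Hoechst) was added. Nuclei counted on 4× images gave relative viability as treated counts over vehicle counts, reported as the median of duplicate plates.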
# [2] = compound: CC1=CC(=NN1)NC2=CC(=NC(=N2)/C=C/C3=CC=CC=C3)N4CCN(CC4)C + CS(=O)(=O)CCNCc1ccc(-c2ccc3ncnc(Nc4ccc(OCc5cccc(F)c5)c(Cl)c4)c3c2)o1 [Lapatinib] (partner 2 µM)
# Outline: as §1
# [3] = compound: CC1=CC(=NN1)NC2=CC(=NC(=N2)/C=C/C3=CC=CC=C3)N4CCN(CC4)C + C[C@]1(O)C[C@@H](c2nc(-c3ccc4ccc(-c5ccccc5)nc4c3)c3c(N)nccn32)C1 [Linsitinib] (partner 1 µM)
# Outline: as §1
# [4] = compound: COC1=CC(c2cc3ccccc3[nH]2)=N/C1=C\c1[nH]c(C)cc1C [Obatoclax] + N=C(N)NC(=N)NCCc1ccccc1 [Phenformin] (partner 250 µM)
# Outline: as §1
Cell Line,relative viability ([1]; first compound 0.0002 µM),relative viability ([1]; first compound 0.002 µM),relative viability ([1]; first compound 0.006325 µM),relative viability ([1]; first compound 0.02 µM),relative viability ([2]; first compound 0.08 µM),relative viability ([2]; first compound 0.253 µM),relative viability ([2]; first compound 0.8 µM),relative viability ([2]; first compound 2.53 µM),relative viability ([2]; first compound 8 µM),relative viability ([3]; first compound 0.08 µM),relative viability ([3]; first compound 0.253 µM),relative viability ([3]; first compound 0.8 µM),relative viability ([3]; first compound 2.53 µM),relative viability ([3]; first compound 8 µM),relative viability ([4]; first compound 0.01 µM),relative viability ([4]; first compound 0.03162 µM),relative viability ([4]; first compound 0.1 µM),relative viability ([4]; first compound 0.3162 µM),relative viability ([4]; first compound 1 µM),relative viability ([1]; first compound 0.000632 µM)
NCI-H1793,0.689,0.682,0.381,0.125,0.528,0.566,0.656,0.1,0.0979,0.904,1.32,0.828,0.432,0.108,0.404,0.32,0.377,0.345,0.332,–
NCI-H2126,0.693,0.751,0.641,0.478,0.729,0.813,0.713,0.629,0.464,0.647,0.72,0.716,0.621,0.421,0.544,0.517,0.504,0.526,0.454,0.875
HCC-827,0.802,0.799,0.814,0.182,0.201,0.168,0.212,0.146,0.124,0.955,1.06,0.932,0.814,0.635,0.424,0.409,0.46,0.373,0.435,0.883
ABC-1,0.689,0.288,0.29,0.312,0.957,1.15,1.23,1.13,0.453,0.787,0.983,0.724,0.581,0.173,0.226,0.215,0.291,0.22,0.297,0.415
BEN,0.559,0.558,0.509,0.317,0.75,0.668,0.742,0.326,0.229,0.953,0.955,0.96,0.76,0.194,0.287,0.224,–,0.286,0.277,0.586
NCI-H23,0.603,0.495,0.132,0.0977,0.981,1.37,1,0.46,0.139,0.61,0.641,0.58,0.313,0.163,0.745,0.746,0.821,0.718,0.597,–
UMC-11,0.365,0.41,0.112,0.0837,0.9,0.758,0.63,0.152,0.128,0.937,1.03,0.934,0.508,0.133,0.303,0.294,0.291,0.272,0.242,0.399
NCI-H1975,0.661,0.154,0.123,0.135,0.933,0.923,0.894,0.203,0.149,0.904,0.951,0.722,0.203,0.127,0.438,0.427,–,0.355,0.228,0.655
COR-L 105,0.846,0.824,0.276,0.271,0.335,0.341,0.338,0.23,0.223,0.815,1.08,1.01,0.331,0.192,0.4,0.53,0.637,0.333,0.266,0.306
LK-2,0.401,0.323,0.173,0.195,0.885,0.852,0.852,0.604,0.181,0.522,0.876,0.75,0.31,0.104,0.547,0.485,0.483,0.464,0.346,0.416
EKVX,0.68,0.65,0.518,0.198,0.191,0.216,0.226,0.136,0.0912,1.02,1.13,1.1,0.788,0.144,0.257,0.218,0.141,0.232,0.231,0.805
NCI-H2009,0.745,0.703,0.0608,0.0437,0.907,0.628,1.03,0.451,0.189,1.08,1.16,1.21,1.05,0.155,0.472,0.507,0.385,0.27,0.194,0.735
NCI-H838,0.683,0.676,0.157,0.144,1.03,1.28,0.831,0.214,0.091,0.999,1.25,0.857,0.747,0.122,0.567,0.622,0.362,0.46,0.322,0.752
NCI-H2085,0.753,0.83,0.255,0.217,0.633,0.804,0.841,0.452,0.309,0.796,0.95,0.931,0.502,0.289,0.707,0.668,0.662,0.581,0.317,0.78
